Data reported in patent publication US20240208901A1, “Deuterated 3,3'-Diselenodipropionic Acid (DSePA) and Its Use as an Anticancer or Radioprotective Agent” (Secretary, Department of Atomic Energy, priority 2022, published 2024).

How the values were obtained:
Format in all cases: cell-based, human
[1] = test system: H1975 cells; assay: MTT assay, anti-proliferative effect in H1975 cells; details: 48 h treatment, read-out: IC50 to inhibit cell proliferation
Protocol: (§1) Therefore, D-DSePA was compared with un-deuterated DSePA for its anticancer activity in A549, H1975 and H3122 cell lines which are representative of NSCLC. For this, above cells were treated with the varying concentrations (0.1-100 μM) of DSePA/D-DSePA for 48 h and the cell viability was determined by MTT assay (FIG. 9A-C). The plot of percent (%) cytotoxicity (100-% viability) versus the concentration of DSePA/D-DSePA was used to estimate the half maximum concentration (IC50) of above compounds to inhibit the proliferation of cells. […] Employing these values, the therapeutic index (IC50 in normal lung cell/IC50 in lung cancer cell) of DSePA and D-DSePA in different pairs of normal versus cancerous cells (viz., A549/WI-38, A549/WI-26 VA4, H1975/WI-38, H1975/WI-26 VA4, H3122/WI-38 and H3122/WI-26 VA4) was calculated (Table-3). […]
(§2) MTT Assay—To evaluate the anti-proliferative effect of D-DScPA and DScPA, Cells (˜5×10^3) suspended in 100 μl of complete culture medium were seeded in each well of 96 well plates. […] The percentage (%) cytotoxicity was calculated from the decrease in absorbance at 570 nm of treated groups as compared to that of control group. […] The therapeutic index was calculated by normalizing the IC50 concentration of D-DSePA/DSePA in non-cancerous cells to that in cancerous cells.

[2] = test system: H3122 cells; assay: MTT assay, anti-proliferative effect in H3122 cells; details: 48 h treatment, read-out: IC50 to inhibit cell proliferation
Protocol: as §1, §2

[3] = test system: A549 cells; assay: Clonogenic assay in A549 cells; details: seven days treatment, read-out: IC50 to inhibit growth (survival fraction)
Protocol: (§3) Further, clonogenic assay is considered as the gold standard method for evaluating the anticancer activity of any compound and is also a good indicator of the in vivo efficacy of any anticancer compound. Therefore, the therapeutic index of DSePA and D-DSePA in A549/WI-38 cells was also validated by employing the clonogenic assay. For this, A549/WI-38 cells were treated with the varying concentrations (0.1-2 μM)/(1-500 μM) of DSePA/D-DSePA for seven days and the survival fraction was calculated by counting the number of surviving clones (FIG. 11A). The plot of survival fraction verses the concentration of DScPA/D-DSCPA was used to estimate the IC50 of above compounds to inhibit the growth of A549/WI-38 cells. […] This clearly confirmed that deuteration of DScPA reduced its toxicity in normal cells without compromising its efficacy in cancer cells. […]
(§4) Clonogenic assay—Clonogenic assay was performed according to the method reported previously. […] After 7 days, colonies were fixed with absolute methanol for 5 min, stained with 0.5% crystal violet for 5 min, washed with distilled water to remove excess stain and counted manually under a stereo microscope. […] The plating efficiency and the survival fraction under irradiated and drug treated conditions were calculated using following formulae: […]
(§5) The plating efficiency of A549 and WI38 cells was calculated by seeding ˜300 and ˜500 cells respectively. […]

[4] = test system: WI-26 VA4 cells; assay: MTT assay, toxicity in non-cancerous lung fibroblast WI-26 VA4 cells; details: 48 h post treatment, read-out: IC50 for inhibiting the cell proliferation
Excerpt: as §1, with “For this, above cells were treated with the varying concentrations (0.1-100 μM) of DSePA/D-DSePA for 48 h and the cell viability was determined by MTT assay (FIG. 9A-C).” left out, “cells. […] Similarly, the toxicity of DSePA/D-DSePA was studied in non-cancerous lung fibroblast cells, WI-38 and WI-26 VA4 in the concentration range of 0.1 to 1000 μM at 48 h post treatment by MTT assay (FIG. 9D and 9E).” for “cells.”
as §2

[5] = test system: WI-38 cells; assay: MTT assay, toxicity in non-cancerous lung fibroblast WI-38 cells; details: WI38 cells, 48 h post treatment, read-out: IC50 for inhibiting the cell proliferation
Excerpt: as §1, with “For this, above cells were treated with the varying concentrations (0.1-100 μM) of DSePA/D-DSePA for 48 h and the cell viability was determined by MTT assay (FIG. 9A-C).” left out, “cells. […] Similarly, the toxicity of DSePA/D-DSePA was studied in non-cancerous lung fibroblast cells, WI-38 and WI-26 VA4 in the concentration range of 0.1 to 1000 μM at 48 h post treatment by MTT assay (FIG. 9D and 9E).” for “cells.”
as §2

[6] = test system: A549 cells; assay: MTT assay, anti-proliferative effect in A549 cells; details: 48 h treatment, read-out: IC50 to inhibit cell proliferation
Protocol: as §1, §2

[7] = test system: WI-38 cells; assay: Clonogenic assay in WI-38 cells; details: seven days treatment, read-out: IC50 to inhibit growth (survival fraction)
Protocol: as §3, §4, §5

Which results are given for `O=C(O)CC[Se][Se]CCC(=O)O` [D-DSePA, 3,3′-diselenodipropionic acid-D8]?
IC50 [1]: 4.6 ± 0.7 µM; IC50 [2]: 46.5 ± 2.9 µM; IC50 [3]: 0.9 ± 0.03 µM; IC50 [4]: 550 ± 10.2 µM; IC50 [5]: 1000 ± 6.3 µM; IC50 [6]: 15.2 ± 0.9 µM; IC50 [7]: 35.5 ± 0.02 µM
